What all share (conditions): at 10 µM
Assay [1] has as its system T1, Receptor-type tyrosine-protein kinase FLT3 (Homo sapiens), P36888 [D835Y].
T1 sequence (whole entry): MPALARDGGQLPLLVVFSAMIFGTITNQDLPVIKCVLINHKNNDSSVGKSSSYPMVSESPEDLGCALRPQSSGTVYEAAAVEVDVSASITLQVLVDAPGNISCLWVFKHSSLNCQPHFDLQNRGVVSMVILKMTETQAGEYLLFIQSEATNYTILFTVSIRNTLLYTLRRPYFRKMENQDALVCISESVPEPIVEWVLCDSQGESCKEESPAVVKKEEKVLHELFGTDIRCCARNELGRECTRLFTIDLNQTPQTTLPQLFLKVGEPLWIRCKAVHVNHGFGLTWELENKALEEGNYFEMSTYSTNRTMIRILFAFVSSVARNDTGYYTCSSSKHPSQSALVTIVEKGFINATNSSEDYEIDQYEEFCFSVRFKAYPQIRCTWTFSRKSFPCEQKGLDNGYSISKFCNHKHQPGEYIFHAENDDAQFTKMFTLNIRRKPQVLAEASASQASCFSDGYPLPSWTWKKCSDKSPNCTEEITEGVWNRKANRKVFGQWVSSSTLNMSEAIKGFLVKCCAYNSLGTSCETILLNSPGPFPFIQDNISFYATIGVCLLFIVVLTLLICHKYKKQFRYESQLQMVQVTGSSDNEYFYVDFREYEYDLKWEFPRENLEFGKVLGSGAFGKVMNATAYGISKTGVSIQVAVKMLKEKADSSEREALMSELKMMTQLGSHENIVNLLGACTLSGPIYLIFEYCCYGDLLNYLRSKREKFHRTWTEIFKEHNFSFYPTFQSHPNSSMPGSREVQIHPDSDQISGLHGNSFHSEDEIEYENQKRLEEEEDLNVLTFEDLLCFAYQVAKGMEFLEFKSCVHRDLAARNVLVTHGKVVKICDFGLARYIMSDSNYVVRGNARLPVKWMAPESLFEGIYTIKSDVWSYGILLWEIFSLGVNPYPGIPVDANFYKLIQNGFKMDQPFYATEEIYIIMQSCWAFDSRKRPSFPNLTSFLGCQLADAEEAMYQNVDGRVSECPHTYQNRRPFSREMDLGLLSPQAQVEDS
The experiment in a line: (§1) Selectivity interaction (KinomeScan (DiscoverX)) EUB0000092b FLT3.

The subject of assay [2] is T2, Receptor-type tyrosine-protein kinase FLT3 (Homo sapiens), P36888 [D835H].
T2 sequence (whole entry): T1 sequence (whole entry) with Y835H
Described as §1.

In assay [3] the target is Receptor-type tyrosine-protein kinase FLT3 (Homo sapiens) (UniProt P36888). The assay is described as §1.
Assay [4] has as its system T3, Receptor-type tyrosine-protein kinase FLT3 (Homo sapiens), P36888 [K663Q].
T3 sequence (whole entry): T1 sequence (whole entry) with K663Q, Y835D
Described as §1.

Residue numbers refer to the chain shown, from its start.

Turning to `CCC(=O)N1CCN(c2ccc(-n3c(=O)ccc4cnc5ccc(-c6cnc7ccccc7c6)cc5c43)cc2C(F)(F)F)CC1`, the % of control came to 16% in assay [1], 18% in assay [2], 16% in assay [3] and 23% in assay [4].

The values above are taken from ChEMBL document CHEMBL5465560, “Selectivity Literature for EUbOPEN Chemogenomic Library” (2024).
